{
  "source": "patent US10183019B2",
  "about": "“Treatment of cancer with dihydropyrazino-pyrazines” (Signal Pharmaceuticals, LLC, priority 2013, dated 2019)",
  "assay_in_all_cases": "Gliomasphere Cell Number Assay",
  "format_in_all_cases": "cell-based",
  "key": {"[1]": {"tested_on": "patient-derived GBM cell line 374", "details": "cell line 374, Primary, MGMT status −; 50% cell numbers vs DMSO control, Day 2 to Day 9; read-out: IC50 Cell Survival", "protocol": "(§1) Gliomasphere Cell Number Assay. Primary patient-derived GBM tumor samples were dissociated and plated under culture conditions that produce gliomaspheres (i.e. DMEM/F12 medium supplemented with B27, 20 ng/mL bFGF, 50 ng/mL EGF, penicillin/streptomycin, L-glutamine and 5 ug/mL heparin). Cells were plated at a density of 5000 cells/well and allowed to acclimate overnight at 37° C. The Dihydropyrazino-Pyrazine Compounds were added to the cultures on Day 2 and cells were kept in culture until Day 9. On Day 9, the cells were fixed with PFA/methanol and the next day assessed for cell number, using for example, SYTO-9 fluorescent DNA dye. Plates were read 48 h later with a laser scanning imager."}, "[2]": {"tested_on": "patient-derived GBM cell line 378", "details": "cell line 378, Recurrent, MGMT status −; 50% cell numbers vs DMSO control, Day 2 to Day 9; read-out: IC50 Cell Survival", "protocol": "as §1"}, "[3]": {"tested_on": "patient-derived GBM cell line 277", "details": "cell line 277, Secondary/Recurrent; 50% cell numbers vs DMSO control, Day 2 to Day 9; read-out: IC50 Cell Survival", "protocol": "as §1"}, "[4]": {"tested_on": "patient-derived GBM cell line 229", "details": "cell line 229, Recurrent; 50% cell numbers vs DMSO control, Day 2 to Day 9; read-out: IC50 Cell Survival", "protocol": "as §1"}, "[5]": {"tested_on": "patient-derived GBM cell line 350", "details": "cell line 350, Recurrent; 50% cell numbers vs DMSO control, Day 2 to Day 9; read-out: IC50 Cell Survival", "protocol": "as §1"}, "[6]": {"tested_on": "patient-derived GBM cell line 248", "details": "cell line 248, Recurrent, MGMT status Slightly elevated; 50% cell numbers vs DMSO control, Day 2 to Day 9; read-out: IC50 Cell Survival", "protocol": "as §1"}, "[7]": {"tested_on": "patient-derived GBM cell line 245", "details": "cell line 245, Recurrent; 50% cell numbers vs DMSO control, Day 2 to Day 9; read-out: IC50 Cell Survival", "protocol": "as §1"}, "[8]": {"tested_on": "patient-derived GBM cell line 217", "details": "cell line 217, Primary; 50% cell numbers vs DMSO control, Day 2 to Day 9; read-out: IC50 Cell Survival", "protocol": "as §1"}, "[9]": {"tested_on": "patient-derived GBM cell line 250", "details": "cell line 250, Recurrent, MGMT Unkn/Highly Expressed; 50% cell numbers vs DMSO control, Day 2 to Day 9; read-out: IC50 Cell Survival", "protocol": "as §1"}, "[10]": {"tested_on": "patient-derived GBM cell line 157", "details": "cell line 157, Primary, MGMT status −; 50% cell numbers vs DMSO control, Day 2 to Day 9; read-out: IC50 Cell Survival", "protocol": "as §1"}, "[11]": {"tested_on": "patient-derived GBM cell line 296", "details": "cell line 296, Recurrent, MGMT status −; 50% cell numbers vs DMSO control, Day 2 to Day 9; read-out: IC50 Cell Survival", "protocol": "as §1"}, "[12]": {"tested_on": "patient-derived GBM cell line 206", "details": "cell line 206, Recurrent, MGMT Unkn/Highly Expressed; 50% cell numbers vs DMSO control, Day 2 to Day 9; read-out: IC50 Cell Survival", "protocol": "as §1"}, "[13]": {"tested_on": "patient-derived GBM cell line 254", "details": "cell line 254, Recurrent; 50% cell numbers vs DMSO control, Day 2 to Day 9; read-out: IC50 Cell Survival", "protocol": "as §1"}, "[14]": {"tested_on": "patient-derived GBM cell line 301", "details": "cell line 301, Primary, MGMT status −; 50% cell numbers vs DMSO control, Day 2 to Day 9; read-out: IC50 Cell Survival", "protocol": "as §1"}, "[15]": {"tested_on": "patient-derived GBM cell line 393", "details": "cell line 393, Primary, MGMT status +; 50% cell numbers vs DMSO control, Day 2 to Day 9; read-out: IC50 Cell Survival", "protocol": "as §1"}, "[16]": {"tested_on": "patient-derived GBM cell line 308", "details": "cell line 308, Recurrent, MGMT Unkn/Highly Expressed; 50% cell numbers vs DMSO control, Day 2 to Day 9; read-out: IC50 Cell Survival", "protocol": "as §1"}, "[17]": {"tested_on": "patient-derived GBM cell line 390", "details": "cell line 390, Primary, MGMT status −; 50% cell numbers vs DMSO control, Day 2 to Day 9; read-out: IC50 Cell Survival", "protocol": "as §1"}, "[18]": {"tested_on": "patient-derived GBM cell line 336", "details": "cell line 336, Recurrent, MGMT status +; 50% cell numbers vs DMSO control, Day 2 to Day 9; read-out: IC50 Cell Survival", "protocol": "as §1"}, "[19]": {"tested_on": "patient-derived GBM cell line 371", "details": "cell line 371, Recurrent, MGMT status −; 50% cell numbers vs DMSO control, Day 2 to Day 9; read-out: IC50 Cell Survival", "protocol": "as §1"}, "[20]": {"tested_on": "patient-derived GBM cell line 347", "details": "cell line 347, Recurrent, MGMT status −; 50% cell numbers vs DMSO control, Day 2 to Day 9; read-out: IC50 Cell Survival", "protocol": "as §1"}, "[21]": {"tested_on": "patient-derived GBM cell line 207", "details": "cell line 207, Recurrent; 50% cell numbers vs DMSO control, Day 2 to Day 9; read-out: IC50 Cell Survival", "protocol": "as §1"}},
  "data": [
    {"compound": "CCN1C(=O)CNc2ncc(-c3ccc(-c4nc[nH]n4)nc3C)nc21", "note": "[Compound 1, 1-ethyl-7-(2-methyl-6-(1H-1,2,4-triazol-3-yl)pyridin-3-yl)-3,4-dihydropyrazino[2,3-b]pyrazin-2(1H)-one]", "values": [
      {"measurement": "IC50", "setting": "[1]", "result": 165, "unit": "nM"},
      {"measurement": "IC50", "setting": "[2]", "result": 81.3, "unit": "nM"},
      {"measurement": "IC50", "setting": "[3]", "result": 107, "unit": "nM"},
      {"measurement": "IC50", "setting": "[4]", "result": 115, "unit": "nM"},
      {"measurement": "IC50", "setting": "[5]", "result": 99.6, "unit": "nM"},
      {"measurement": "IC50", "setting": "[6]", "result": 441, "unit": "nM"},
      {"measurement": "IC50", "setting": "[7]", "result": 68.7, "unit": "nM"},
      {"measurement": "IC50", "setting": "[8]", "result": 71.9, "unit": "nM"},
      {"measurement": "IC50", "setting": "[9]", "result": 70.6, "unit": "nM"},
      {"measurement": "IC50", "setting": "[10]", "result": 46.8, "unit": "nM"},
      {"measurement": "IC50", "setting": "[11]", "result": 74.5, "unit": "nM"},
      {"measurement": "IC50", "setting": "[12]", "result": 163, "unit": "nM"},
      {"measurement": "IC50", "setting": "[13]", "result": 99.6, "unit": "nM"},
      {"measurement": "IC50", "setting": "[14]", "result": 313, "unit": "nM"},
      {"measurement": "IC50", "setting": "[15]", "result": 178, "unit": "nM"},
      {"measurement": "IC50", "setting": "[16]", "result": 68.2, "unit": "nM"},
      {"measurement": "IC50", "setting": "[17]", "result": 65.9, "unit": "nM"},
      {"measurement": "IC50", "setting": "[18]", "result": 231, "unit": "nM"},
      {"measurement": "IC50", "setting": "[19]", "result": 368, "unit": "nM"},
      {"measurement": "IC50", "setting": "[20]", "result": 163, "unit": "nM"},
      {"measurement": "IC50", "setting": "[21]", "result": 100, "unit": "nM"}
    ]}
  ]
}
